pIC50: −log10 of the molar value.
Legend:
Assay type in all cases: cell-based
MCF-7 cells = test: Breast Cancer Cell Viability Assay (MCF7 Viability Assay); conditions: 5 days' compound exposure, CellTiter-Glo; for pIC50: Homo sapiens, MCF7, 120 h
Outline: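 MCF-7 cells, 320 per well in RPMI with 10% FBS and 20 mM HEPES, adhered overnight, then exposed 5 days to an eleven-point semilog dilution (final 0.3–0.000003 μM). CellTiter-Glo luminescence; % viability relative to untreated cells after subtracting cell-free background.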

ER-α [1] = target: T1, ER-α (Homo sapiens, UniProt P03372); test: ER-α In Cell Western Assay (ER1D5); conditions: MCF-7 cells, ER1D5 antibody, 4 or 24 hr post compound addition, read-out: ER In-Cell Western Assay (ER1D5); for Emax: MCF7, Max Response; for DC50: IC50
T1 construct: endogenous in cells; host or cells: MCF-7
T1 sequence (P03372 1-595): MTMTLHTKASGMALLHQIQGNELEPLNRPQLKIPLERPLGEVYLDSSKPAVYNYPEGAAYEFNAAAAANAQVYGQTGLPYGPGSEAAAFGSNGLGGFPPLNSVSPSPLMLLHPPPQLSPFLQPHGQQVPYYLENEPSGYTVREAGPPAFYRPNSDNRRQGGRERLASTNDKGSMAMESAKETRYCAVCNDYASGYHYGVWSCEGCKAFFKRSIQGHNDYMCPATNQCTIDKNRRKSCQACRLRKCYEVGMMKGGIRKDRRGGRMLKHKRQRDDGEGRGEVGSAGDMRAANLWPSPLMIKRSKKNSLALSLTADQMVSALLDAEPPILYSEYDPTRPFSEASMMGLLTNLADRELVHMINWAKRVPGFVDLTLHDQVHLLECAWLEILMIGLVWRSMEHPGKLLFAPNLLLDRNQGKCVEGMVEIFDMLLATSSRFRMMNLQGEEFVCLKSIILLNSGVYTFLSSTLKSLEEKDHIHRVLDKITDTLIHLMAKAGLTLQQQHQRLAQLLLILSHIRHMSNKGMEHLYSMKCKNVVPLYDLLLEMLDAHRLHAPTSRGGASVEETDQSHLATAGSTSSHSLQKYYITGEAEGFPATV
Procedure: MCF-7 cells were adjusted to a concentration of 200,000 cells per mL in RPMI containing 10% charcoal-stripped FBS and 20 mM HEPES. 16 microliters of the cell suspension (3200 cells) was added to each well of a poly-D-lysine 384 well plate, and the cells were incubated overnight to allow the cells to adhere. The following day an eleven point, serial semilog dilution of each compound was added to the cells in 16 μL at a final concentration ranging from 0.3-0.000003 μM. At 4 or 24 hr post compound addition, the cells were fixed (10% formalin in PBS) for 20 minutes. Cells were permeabalized in PBS 0.1% Triton and blocked with LICOR blocking buffer (50 μl/well, 90′). The wells were then incubated overnight at 4° C. with ER1D5 (Santa Cruz Biotechnology) diluted 1:100 in LICOR blocking buffer/0.1% Tween-20. Wells which were treated with blocking buffer with Tween but no antibody were used as a background control. Wells were washed with 0.1% Tween-20/PBS and then incubated in goat anti-mouse IRDye™ 800CW (LICOR Inc.; 1:1000) and DRAQ5 DNA dye (1:2000 for 2 mM stock) diluted in LICOR blocking buffer containing 0.1% Tween-20 and 0.01% SDS for 60 minutes. Cells were washed (50 μl/well, 5′ each) in 0.1% Tween-20/PBS. Plates were scanned on a LICOR Odyssey infrared imaging system. Integrated intensities in the 800 nm channel and 700 nm channel were measured to determine levels of ER and DNA respectively. Percent ER levels were determined as follows: (Integrated intensity 800 nm sample/integrated intensity 700 nm sample)/(Integrated intensity 800 nm untreated cells/integrated intensity 700 nm untreated cells)×100=% ER levels.

ER-α [2] = target: T1, ER-α; test: ER-α in Cell Western Assay (SP1); conditions: MCF-7 cells, SP1 rabbit monoclonal Ab, 4 or 24 hr post compound addition, read-out: ER In-Cell Western Assay (SP1); for Emax: MCF7, Max Response; for DC50: IC50
Outline: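 MCF-7 cells in charcoal-stripped FBS medium treated with 11-point semilog dilutions (0.3–0.000003 μM final) for 4 or 24 hr, then fixed and immunostained with SP1 anti-ER antibody. ER signal (800 nm) normalized to DRAQ5 DNA signal (700 nm) and expressed as % of untreated cells.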

| SMILES | MCF7 Viability Assay Max Response (MCF-7 cells) | pIC50 (MCF-7 cells) | Emax (ER-α [1]) [%] | DC50 (ER-α [1]) [nM] | Emax (ER-α [2]) [%] | DC50 (ER-α [2]) [nM] |
| --- | --- | --- | --- | --- | --- | --- |
| CNCCOc1ccc(C2Oc3ccc(O)cc3C(C)=C2c2cccc(O)c2)cc1 (stereo not drawn) [Example 3, 3-(3-Hydroxyphenyl)-4-methyl-2-(4-(2-(methylamino)ethoxy)phenyl)-2H-chromen-6-ol] | ++ (++ = a single % value ≧50%) | ≥ 9.00 | < 40 | ≤ 1 | < 60 | ≤ 1 |
| CC1=C(c2cccc(O)c2)C(c2ccc(OC[C@H](C)N3CCCCC3)cc2)Oc2ccc(O)cc21 (stereo partly drawn) [Example 1, 3-(3-Hydroxyphenyl)-4-methyl-2-(4-((S)-2-(piperidin-1-yl)propoxy)phenyl)-2H-chromen-6-ol] | ++ (++ = a single % value ≧50%) | ≥ 9.00 | 40 to 65 | ≤ 1 | 60 to 85 | ≤ 1 |
| CC1=C(c2cccc(O)c2)C(c2ccc(OC[C@@H](C)N3CC[C@H](C)C3)cc2)Oc2ccc(O)cc21 (stereo partly drawn) [Example 13, 3-(3-Hydroxyphenyl)-4-methyl-2-(4-((R)-2-((S)-3-methylpyrrolidin-1-yl)propoxy)phenyl)-2H-chromen-6-ol] | ++ (++ = a single % value ≧50%) | ≥ 9.00 | < 40 | ≤ 1 | < 60 | ≤ 1 |
| CC1=C(c2cccc(O)c2)C(c2ccc(OC[C@H](C)N3CCCCCC3)cc2)Oc2ccc(O)cc21 (stereo partly drawn) [Example 15, 2-(4-((S)-2-(Azepan-1-yl)propoxy)phenyl)-3-(3-hydroxyphenyl)-4-methyl-2H-chromen-6-ol] | ++ (++ = a single % value ≧50%) | ≥ 9.00 | 40 to 65 | ≤ 1 | 60 to 85 | ≤ 1 |
| CC1=C(c2cccc(O)c2)C(c2ccc(OCCN3CCC[C@@H](C)C3)cc2)Oc2ccc(O)cc21 (stereo partly drawn) [Example 53, 3-(3-Hydroxyphenyl)-4-methyl-2-(4-(2-((R)-3-methylpiperidin-1-yl)ethoxy)phenyl)-2H-chromen-6-ol] | ++ (++ = a single % value ≧50%) | ≥ 9.00 | 40 to 65 | ≤ 1 | 60 to 85 | ≤ 1 |
| CC1=C(c2cccc(O)c2)C(c2ccc(OC[C@@H](C)N3CC[C@@H](C)C3)cc2)Oc2ccc(O)cc21 (stereo partly drawn) [Example 10, 3-(3-Hydroxyphenyl)-4-methyl-2-(4-((R)-2-((R)-3-methylpyrrolidin-1-yl)propoxy)phenyl)-2H-chromen-6-ol] | + (+ = a single % value <50%) | ≥ 9.00 | < 40 | ≤ 1 | 60 to 85 | ≤ 1 |
| CC1=C(c2ccc(Br)cc2)C(c2ccc(OC[C@H](C)N3CC[C@@H](C)C3)cc2)Oc2ccc(O)cc21 (stereo partly drawn) [Example 54, 3-(4-Bromophenyl)-4-methyl-2-(4-((S)-2-((R)-3-methylpyrrolidin-1-yl)propoxy)phenyl)-2H-chromen-6-ol] | ++ (++ = a single % value ≧50%) | < 9.00 | ≥ 65 | > 1 | 60 to 85 | > 1 |
| CC1=C(c2ccc(S(C)(=O)=O)cc2)C(c2ccc(OC[C@H](C)N3CC[C@@H](C)C3)cc2)Oc2ccc(O)cc21 (stereo partly drawn) [Example 59, 4-Methyl-2-(4-((S)-2-((R)-3-methylpyrrolidin-1-yl)propoxy)phenyl)-3-(4-(methylsulfonyl)phenyl)-2H-chromen-6-ol] | ++ (++ = a single % value ≧50%) | < 9.00 | 40 to 65 | > 1 | 60 to 85 | > 1 |
| CC1=C(c2cccc(O)c2)C(c2ccc(N(C)CCO)cc2)Oc2ccc(O)cc21 (stereo not drawn) [Example 4, 2-(4-((2-Hydroxyethyl)(methyl)amino)phenyl)-3-(3-hydroxyphenyl)-4-methyl-2H-chromen-6-ol] | + (+ = a single % value <50%) | < 9.00 | < 40 | > 1 | < 60 | > 1 |
| CC1=C(c2cccc(O)c2)C(c2ccc(OCCN3CCC[C@H]3C)cc2)Oc2ccc(O)cc21 (stereo partly drawn) [Example 20, 3-(3-Hydroxyphenyl)-4-methyl-2-(4-(2-((R)-2-methylpyrrolidin-1-yl)ethoxy)phenyl)-2H-chromen-6-ol] | ++ (++ = a single % value ≧50%) | ≥ 9.00 | 40 to 65 | ≤ 1 | 60 to 85 | ≤ 1 |
| CC1=C(c2cccc(F)c2)C(c2ccc(OC[C@H](C)N3CC[C@@H](C)C3)cc2)Oc2ccc(O)cc21 (stereo partly drawn) [Example 32, 3-(3-Fluorophenyl)-4-methyl-2-(4-((S)-2-((R)-3-methylpyrrolidin-1-yl)propoxy)phenyl)-2H-chromen-6-ol] | + (+ = a single % value <50%) | ≥ 9.00 | ≥ 65 | ≤ 1 | ≥ 85 | ≤ 1 |
| CC1=C(c2cccc(O)c2)C(c2ccc(OCCN3CCCC3)cc2)Oc2cc(O)ccc21 (stereo not drawn) [Example 26, 3-(3-Hydroxyphenyl)-4-methyl-2-(4-(2-(pyrrolidin-1-yl)ethoxy)phenyl)-2H-chromen-7-ol] | ++ (++ = a single % value ≧50%) | ≥ 9.00 | 40 to 65 | ≤ 1 | 60 to 85 | ≤ 1 |
| CC1=C(c2cccc(O)c2)C(c2ccc(OC[C@H](C)N3CCCC3)cc2)Oc2ccc(O)cc21 (stereo partly drawn) [Example 6, 3-(3-Hydroxyphenyl)-4-methyl-2-(4-((S)-2-(pyrrolidin-1-yl)propoxy)phenyl)-2H-chromen-6-ol] | ++ (++ = a single % value ≧50%) | ≥ 9.00 | ≥ 65 | ≤ 1 | 60 to 85 | ≤ 1 |
| CC1=C(c2cccc(O)c2)[C@@H](c2ccc(OC[C@H](C)N3CC[C@@H](C)C3)cc2)Oc2ccc(O)cc21 (single isomer, unassigned) [Example 2b] | ++ (++ = a single % value ≧50%) | < 9.00 | ≥ 65 | > 1 | ≥ 85 | > 1 |
| CC1=C(c2cccc(O)c2)C(c2ccc(OC[C@H](C)N3CCC3)cc2)Oc2ccc(O)cc21 (stereo partly drawn) [Example 37, 2-(4-((S)-2-(Azetidin-1-yl)propoxy)phenyl)-3-(3-hydroxyphenyl)-4-methyl-2H-chromen-6-ol] | ++ (++ = a single % value ≧50%) | ≥ 9.00 | 40 to 65 | ≤ 1 | 60 to 85 | ≤ 1 |
| CC1=C(c2ccc(F)cc2)C(c2ccc(OCCN3CCCC3)cc2)Oc2ccc(O)cc21 (stereo not drawn) [Example 55, 3-(4-Fluorophenyl)-4-methyl-2-(4-(2-(pyrrolidin-1-yl)ethoxy)phenyl)-2H-chromen-6-ol] | ++ (++ = a single % value ≧50%) | < 9.00 | 40 to 65 | > 1 | 60 to 85 | ≤ 1 |
